Laboratory results as given in article PMC8878464, “Fenchone Derivatives as a Novel Class of CB2 Selective Ligands: Design, Synthesis, X-ray Structure and Therapeutic Potential” (Molecules, 2022).
Several values for one entry are separate records, joined by “and”; a condition that tells them apart may be missing. Identical values can stand only once. Entries after “also recorded” stand apart in the source; their conditions may differ. Like-named read-outs stand apart in the source and are kept apart here.

Key:
human CB1R (hCB1R) = target: T1, human CB1R (hCB1R) (Homo sapiens, UniProt P21554); assay: [3H]CP-55,940 competition displacement binding assay, hCB1R membranes
T1 construct: purchased Charles River A317
T1 sequence (P21554 whole entry): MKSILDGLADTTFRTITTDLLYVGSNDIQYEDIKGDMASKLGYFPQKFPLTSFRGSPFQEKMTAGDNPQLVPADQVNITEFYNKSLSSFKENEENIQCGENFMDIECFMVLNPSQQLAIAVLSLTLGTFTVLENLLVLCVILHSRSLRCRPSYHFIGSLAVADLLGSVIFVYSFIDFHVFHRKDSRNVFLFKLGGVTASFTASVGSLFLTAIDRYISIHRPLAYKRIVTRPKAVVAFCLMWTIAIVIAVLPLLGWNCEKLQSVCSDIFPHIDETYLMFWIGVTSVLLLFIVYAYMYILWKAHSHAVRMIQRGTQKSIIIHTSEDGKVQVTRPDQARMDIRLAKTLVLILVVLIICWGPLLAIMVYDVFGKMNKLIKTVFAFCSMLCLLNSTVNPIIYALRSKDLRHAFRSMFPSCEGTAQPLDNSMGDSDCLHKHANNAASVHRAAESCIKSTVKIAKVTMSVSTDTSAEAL
Description: (§1) The compounds were further characterized using a radioligand binding assay to determine their affinities for CB1R and CB2R based on each test compound’s ability to displace the radiolabeled CB1R/CB2R agonist CP-55,940 from membranes of cells expressing the human CB1R and CB2R [24].
(§2) Membranes from cells expressing hCB1R and hCB2R were purchased from Charles River, (Cat#A317 and A318, respectively; OH, USA). Solutions of test compounds ranging from 0.1 nM to 10 mM were prepared in DMSO. The desired amount of membrane preparation was diluted with ice-cold assay buffer (50 mM Tris-HCl, 2.5 mM EDTA, 5 mM MgCl2, 0.1% BSA, pH 7.4) and was vortexed. […] The assays were incubated for 90 min at 30 °C and then immediately filtered on WHATMAN GF/B Filter Paper (Fired) using a Brandel M-24R Harvester followed by six washes with ice cold wash buffer (50 mM Tris-HCl, 2.5 mM EDTA, 5 mM MgCl2, 0.1% BSA, pH 7.4). Radioactivity was detected by adding the Filter Paper directly to the ULTIMA GOLD scintillation cocktail (PerkinElmer, Waltham, MA, USA), incubation at 20 °C for 60 min and then counted using a Tri-Carb 4910TR liquid scintillation counter (PerkinElmer, Waltham, MA, USA).

human CB2R (hCB2R) = human CB2R (hCB2R) (Homo sapiens, UniProt P34972); assay: [3H]CP-55,940 competition displacement binding assay, hCB2R membranes
human CB2R (hCB2R), sequence (P34972 whole entry): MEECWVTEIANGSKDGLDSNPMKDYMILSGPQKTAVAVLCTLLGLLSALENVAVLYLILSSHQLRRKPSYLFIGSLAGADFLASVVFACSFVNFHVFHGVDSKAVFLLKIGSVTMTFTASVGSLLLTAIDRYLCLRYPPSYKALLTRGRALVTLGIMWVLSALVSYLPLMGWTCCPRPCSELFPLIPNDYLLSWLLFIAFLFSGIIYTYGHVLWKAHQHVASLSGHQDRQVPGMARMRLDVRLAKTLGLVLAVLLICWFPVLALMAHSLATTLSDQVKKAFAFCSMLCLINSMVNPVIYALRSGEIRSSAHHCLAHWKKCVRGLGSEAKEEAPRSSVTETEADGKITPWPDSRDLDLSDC
Description: as §1, §2
Each curve represents the mean of three experiments performed in triplicate.

hCB2R = target: T2, hCB2R (Homo sapiens, UniProt P34972); assay: [35S]GTPγS binding assay at hCB2R; format: biochemical; conditions: for functional activity at hCB2R (agonist / antagonist / inverse agonist): [35S]GTPγS binding; for EC50: increase in [35S]GTPγS binding to hCB2R, two independent experiments in triplicate
T2 construct: purchased Charles River A318; host or cells: CHO-K1 cells
T2 sequence (P34972 whole entry): as above
Description: The method used for measuring agonist-stimulated binding of [^35S]GTPγS was based on a described protocol. Membranes (5 μg protein) were incubated in GTPγS assay buffer (50 mM Tris HCl (pH 7.4), 0.2 mM EGTA, 9 mM MgCl2, 150 mM NaCl, 1 mg/mL BSA) containing 100 μM GDP, 0.05 nM [^35S]GTPγS and test compounds at various concentrations. Vacuum filtration was used to separate bound ligand from free ligand. We used 10 μM GTPS to determine nonspecific binding. Basal binding was assayed in the absence of the ligand and in the presence of GDP.
Each symbol represents the mean percentage increase in [^35S]GTPγS binding ± SE.

TNF-α = assay: Serum TNF-α (ELISA) after zymosan injection in mice; format: in vivo; conditions: 25 mg/kg ip, 24 h after zymosan
Description: Control mice were injected with vehicle.
A mouse TNFα ELISA kit was used according to the manufacturer’s instructions (R&D Systems, Minneapolis, MN, USA).

[1] = system: zymosan-induced paw inflammation; assay: Zymosan-induced hind paw swelling (oedema) in mice; format: in vivo; conditions: 25 mg/kg ip, 6 h after 60 μg zymosan paw injection
[2] = displacement of [3H]CP-55,940, membranes of CHO-K1 cells expressing human CB2R, read-out: Ki (nM) hCB2R
[3] = maximal effect as percentage of HU-308 response at 1 µM

Compound	Ki (human CB1R (hCB1R); read-out: Ki (nM) hCB1R) [nM]	Ki (human CB2R (hCB2R); [2])	functional activity at hCB2R (agonist / antagonist / inverse agonist) (hCB2R)	other results
2-(2′-Methoxy-5′-octylphenyl)-1,3,3-trimethylbicyclo[2.2.1]heptan-2-ol [Compound 3g]	–	–	–	Ki (human CB1R (hCB1R); displacement of [3H]CP-55,940, class word NB, read-out: Ki (nM) hCB1R): > 10000 nM
CCCCCc1cc(OC)c(C2(O)C3(C)CCC(C3)C2(C)C)c(OC)c1 (centres unmarked) [Compound 1a, 2-(2′,6′-Dimethoxy-4′-pentylphenyl)-1,3,3-trimethylbicyclo[2.2.1]heptan-2-ol]	> 10000	47.7 nM	–	inhibition of [3H]CP-55,940 binding to hCB1R (human CB1R (hCB1R); result in words): no measurable inhibition
CCCCCc1cc(OC)c(C2(O)C3(C)CCC(C3)C2(C)C)c(OC)c1 (centres unmarked) [Compound 1b, 2-(2′,6′-Dimethoxy-4′-pentylphenyl)-1,3,3-trimethylbicyclo[2.2.1]heptan-2-ol]	–	14.4 nM	agonist	E(max)% (hCB2R): 65.1%; EC50 (hCB2R): 11.6 nM; inhibition of TNF-α serum levels (TNF-α): 39%; reduction in swelling [1]: 54%
CCCCCCC(C)(C)c1cc(OC)c(C2(O)C3(C)CCC(C3)C2(C)C)c(OC)c1 (centres unmarked) [Compound 1c, 2-(2′,6′-Dimethoxy-4′-(2″-methyloctan-2″-yl)phenyl)-1,3,3-trimethylbicyclo[2.2.1]heptan-2-ol]	> 10000	56.8 nM	agonist	EC50 (hCB2R): 121 nM
COc1cc(C)cc(OC)c1C1(O)C2(C)CCC(C2)C1(C)C (centres unmarked) [Compound 1e, 2-(2′,6′-Dimethoxy-4′-methylphenyl)-1,3,3-trimethylbicyclo[2.2.1]heptan-2-ol]	> 10000	–	–	Ki (human CB2R (hCB2R); displacement of [3H]CP-55,940, value given in µM, read-out: Ki (nM) hCB2R): > 10000 nM
COc1cc(C)cc(OC)c1C1(O)C2(C)CCC(C2)C1(C)C (centres unmarked) [Compound 1f, 2-(2′,6′-Dimethoxy-4′-methylphenyl)-1,3,3-trimethylbicyclo[2.2.1]heptan-2-ol]	–	233 nM	–	–
CCCCCCc1ccc(OC)c(C2(O)C3(C)CCC(C3)C2(C)C)c1OC (centres unmarked) [Compound 2a, 2-(3′-Hexyl-2′,6′-dimethoxyphenyl)-1,3,3-trimethylbicyclo[2.2.1]heptan-2-ol]	> 10000	224 nM and 223 nM	–	–
CCCCCCc1ccc(OC)c(C2(O)C3(C)CCC(C3)C2(C)C)c1OC (centres unmarked) [Compound 2b, 2-(3′-Hexyl-2′,6′-dimethoxyphenyl)-1,3,3-trimethylbicyclo[2.2.1]heptan-2-ol]	–	73.4 nM	weakly stimulated; also recorded: agonist	E(max)% (hCB2R): 46.2%; EC50 (hCB2R): 1940 nM
CCCc1ccc(OC)c(C2(O)C3(C)CCC(C3)C2(C)C)c1 (centres unmarked) [Compound 3a, 2-(2′-Methoxy-5′-propylphenyl)-1,3,3-trimethylbicyclo[2.2.1]heptan-2-ol]	> 10000	1010 nM	–	–
CCCc1ccc(OC)c(C2(O)C3(C)CCC(C3)C2(C)C)c1 (centres unmarked) [Compound 3b, 2-(2′-Methoxy-5′-propylphenyl)-1,3,3-trimethylbicyclo[2.2.1]heptan-2-ol]	–	610 nM	–	–
CCCCCc1ccc(OC)c(C2(O)C3(C)CCC(C3)C2(C)C)c1 (centres unmarked) [Compound 3c, 2-(2′-Methoxy-5′-pentylphenyl)-1,3,3-trimethylbicyclo[2.2.1]heptan-2-ol]	> 10000	444 nM	–	–
CCCCCc1ccc(OC)c(C2(O)C3(C)CCC(C3)C2(C)C)c1 (centres unmarked) [Compound 3d, 2-(2′-Methoxy-5′-pentylphenyl)-1,3,3-trimethylbicyclo[2.2.1]heptan-2-ol]	–	834 nM	–	–
CCC(C)(C)c1ccc(OC)c(C2(O)C3(C)CCC(C3)C2(C)C)c1 (centres unmarked) [Compound 3e, 2-(2′-Methoxy-5′-(tert-pentyl)phenyl)-1,3,3-trimethylbicyclo[2.2.1] heptan-2-ol]	> 10000	2870 nM	–	–
CCC(C)(C)c1ccc(OC)c(C2(O)C3(C)CCC(C3)C2(C)C)c1 (centres unmarked) [Compound 3f, 2-(2′-Methoxy-5′-(tert-pentyl)phenyl)-1,3,3-trimethylbicyclo[2.2.1] heptan-2-ol]	–	1450 nM	–	–
CCCCCCCCc1ccc(OC)c(C2(O)C3(C)CCC(C3)C2(C)C)c1 (centres unmarked) [Compound 3h, 2-(2′-Methoxy-5′-octylphenyl)-1,3,3-trimethylbicyclo[2.2.1]heptan-2-ol]	> 10000	–	–	–
CCCCCc1cc(OC)c(C2(O)C3(C)CCC(C3)C2(C)C)c(OC)c1F (centres unmarked) [Compound 4a, 2-(3′-Fluoro-2′,6′-dimethoxy-4′-pentylphenyl)-1,3,3-trimethylbicyclo[2.2.1]heptan-2-ol]	> 10000	155 nM	–	–
CCCCCc1cc(OC)c(C2(O)C3(C)CCC(C3)C2(C)C)c(OC)c1F (centres unmarked) [Compound 4b, 2-(3′-Fluoro-2′,6′-dimethoxy-4′-pentylphenyl)-1,3,3-trimethylbicyclo[2.2.1]heptan-2-ol]	–	28.3 nM	agonist	EC50 (hCB2R): 305 nM; E(max)% (hCB2R; [3]): 54.2%
CCCCCCC(C)(C)c1cc(OC)c(C2(O)C3(C)CCC(C3)C2(C)C)c(OC)c1F (centres unmarked) [Compound 4c, 2-(3′-fluoro-2′,6′-dimethoxy-4′-(2″-methyloctan-2″-yl)phenyl)-1,3,3-trimethylbicyclo[2.2.1]heptan-2-ol]	> 10000	438 nM	–	–
CCCCCCC(C)(C)c1cc(OC)c(C2(O)C3(C)CCC(C3)C2(C)C)c(OC)c1F (centres unmarked) [Compound 4d, 2-(3′-fluoro-2′,6′-dimethoxy-4′-(2″-methyloctan-2″-yl)phenyl)-1,3,3-trimethylbicyclo[2.2.1]heptan-2-ol]	–	56.6 nM	agonist	EC50 (hCB2R): 104 nM; E(max)% (hCB2R; [3]): 119%
CCCCCc1cc(O)c(C2(O)C3(C)CCC(C3)C2(C)C)c(OC)c1 (centres unmarked) [Compound 5a, 2-(2′-hydroxy-6′-methoxy-4′-pentylphenyl)-1,3,3-trimethylbicyclo[2.2.1]heptan-2-ol]	> 10000	4980 nM	–	–
CCCCCc1cc(O)c(C2(O)C3(C)CCC(C3)C2(C)C)c(OC)c1 (centres unmarked) [Compound 5b, 2-(2′-hydroxy-6′-methoxy-4′-pentylphenyl)-1,3,3-trimethylbicyclo[2.2.1]heptan-2-ol]	–	36.5 nM	agonist	E(max)% (hCB2R): 69.5%; EC50 (hCB2R): 82.8 nM
CCCCCCC(C)(C)c1cc(O)c(C2(O)C3(C)CCC(C3)C2(C)C)c(OC)c1 (centres unmarked) [Compound 5c, 2-(2′-Hydroxy-6′-methoxy-4′-(2″-methyloctan-2″-yl)phenyl)-1,3,3-trimethylbicyclo-[2.2.1]heptan-2-ol]	> 10000	107 nM	–	–
CCCCCCC(C)(C)c1cc(O)c(C2(O)C3(C)CCC(C3)C2(C)C)c(OC)c1 (centres unmarked) [Compound 5d, 2-(2′-Hydroxy-6′-methoxy-4′-(2″-methyloctan-2″-yl)phenyl)-1,3,3-trimethylbicyclo-[2.2.1]heptan-2-ol]	–	–	agonist	EC50 (hCB2R): 14.8 nM; E(max)% (hCB2R; [3]): 105%; Ki (human CB2R (hCB2R); Ki (nM) hCB2R): 24.6 nM and 24.5 nM
CCCCCCC(C)(C)c1cc(OC)c([C@@H]2C=C(CO)[C@@H]3C[C@H]2C3(C)C)c(OC)c1 [HU-308, reference compound]	–	–	agonist	E(max)% (hCB2R; [3]): 100%; Ki (human CB1R (hCB1R)): > 10000 nM; inhibition of TNF-α serum levels (TNF-α): 28%; reduction in swelling [1]: 20%
